Source: patent US7119121B2, “3,3-diphenylpropylamines useful in therapy” (Pfizer Inc., priority 2003, dated 2006)

Legend:
P450 CYP2D6 enzyme = P450 CYP2D6 enzyme (Homo sapiens, UniProt P10635); experiment: Protection from CYP2D6 metabolism (microsome incubation, HPLC); assay type: in vitro ADME; details: approx. 10 μM [14C]-labeled compound, microsomes with CYP2D6 (20 pmol), 1 mM β-NADPH, pH 7.4, 37° C., 20 min
Protocol: [^14C]-labeled N,N-diisopropyl-3-(2-hydroxy-5-trifluoromethylphenyl)-3-phenylpropanamine is synthesized, following the general procedure of examples 1–9. Approximately 10 μM of the compound is incubated with microsomes containing P450 CYP2D6 enzyme (20 pmol) in 100 mM potassium phosphate buffer (pH 7.4) and 1 mM β-NADPH at 37° C. in a final volume of 250 μl for 20 min.
The incubations are analyzed for the parent drug and its metabolites by HPLC using standard procedures. The amount of each metabolite is calculated from the resulting radiochromatogram. The retention times of formed metabolites are compared with the retention times of synthesized reference standards, and the identity of the formed metabolites is further confirmed by electrospray ionization mass spectrometry.

[1] = target: T1, muscarinic receptor subtype M4 (Homo sapiens, UniProt P08173); experiment: In vitro muscarinic receptor binding assay ([3H]NMS competition, SPA); details: cloned human receptors in CHO cell membranes, [3H]N-methylscopolamine, average of four determinations
T1 construct: purchased Receptor Biology division of Perkin Elmer Life Sciences (Beltsville, Md.)
T1 sequence (P08173 1-479): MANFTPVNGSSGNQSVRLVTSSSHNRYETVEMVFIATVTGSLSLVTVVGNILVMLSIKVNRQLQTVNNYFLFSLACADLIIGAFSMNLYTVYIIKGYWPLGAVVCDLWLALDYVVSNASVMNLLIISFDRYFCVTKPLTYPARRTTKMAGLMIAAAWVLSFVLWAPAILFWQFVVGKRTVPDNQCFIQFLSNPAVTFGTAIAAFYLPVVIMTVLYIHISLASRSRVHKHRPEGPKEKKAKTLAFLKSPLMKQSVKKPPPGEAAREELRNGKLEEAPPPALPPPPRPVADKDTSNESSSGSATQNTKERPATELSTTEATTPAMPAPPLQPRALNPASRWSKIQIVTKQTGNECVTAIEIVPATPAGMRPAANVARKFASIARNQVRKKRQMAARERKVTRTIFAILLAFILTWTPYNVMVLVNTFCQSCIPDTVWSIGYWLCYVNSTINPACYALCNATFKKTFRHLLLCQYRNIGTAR
Protocol: (§1) Affinities of test compounds for muscarinic receptor subtypes M1–M4 were determined. Competition radioligand binding experiments employed 11 drug concentrations run in duplicate. [^3H]N-methylscopolamine (NMS) was used as an antagonist radioligand, at the concentration equal to its equilibrium dissociation constant (Kd) for each receptor subtype. […] Total binding was determined with phosphate buffered saline (PBS). Cloned human receptors permanently expressed in CHO cells were the source of all binding sites. Membranes were purchased from Receptor Biology division of Perkin Elmer Life Sciences (Beltsville, Md.). The assays were run in scintillation proximity assay (SPA) format. Binding mixtures were made in flexible, 96-well, Wallac Micro-Beta plates by the addition of 11 μl of drug dilution, 11 μl of radioligand, and 178 μl of membrane/SPA bead suspension (100 mg of WGA-coated SPA beads, incubated with 5–15 μg protein/plate in 10 ml PBS for 30 min at room temperature, followed by low-speed centrifugation and resuspension in 2 ml PBS). After sealing and incubation at room temperature for 1 hour the plates were counted in a Wallac Micro-Beta scintillation counter. IC50 values were estimated by fitting the data to a one-site competition model: Y=T/(1+10^log(x)−log(IC50)), where Y is the specific CPM's bound at concentration X, and T is the specific CPM's bound in the absence of competitor. Inhibition constants (Ki) were calculated using the Cheng-Prushoff equation (Cheng, Y; Prushoff, W H, Biochem Pharmacol 22: 3099–3108, 1973). Curve fitting and Ki calculations were carried out using GraphPad Prism, version 3.0 (San Diego, Calif.).
(§2) Results are the average of four separate determinations. In vitro Binding

[2] = target: T2, muscarinic receptor subtype M3 (Homo sapiens, UniProt P20309); experiment: as above; details: cloned human receptors in CHO cell membranes, [3H]N-methylscopolamine, average of four determinations
T2 construct: purchased Receptor Biology division of Perkin Elmer Life Sciences (Beltsville, Md.)
T2 sequence (P20309 whole entry): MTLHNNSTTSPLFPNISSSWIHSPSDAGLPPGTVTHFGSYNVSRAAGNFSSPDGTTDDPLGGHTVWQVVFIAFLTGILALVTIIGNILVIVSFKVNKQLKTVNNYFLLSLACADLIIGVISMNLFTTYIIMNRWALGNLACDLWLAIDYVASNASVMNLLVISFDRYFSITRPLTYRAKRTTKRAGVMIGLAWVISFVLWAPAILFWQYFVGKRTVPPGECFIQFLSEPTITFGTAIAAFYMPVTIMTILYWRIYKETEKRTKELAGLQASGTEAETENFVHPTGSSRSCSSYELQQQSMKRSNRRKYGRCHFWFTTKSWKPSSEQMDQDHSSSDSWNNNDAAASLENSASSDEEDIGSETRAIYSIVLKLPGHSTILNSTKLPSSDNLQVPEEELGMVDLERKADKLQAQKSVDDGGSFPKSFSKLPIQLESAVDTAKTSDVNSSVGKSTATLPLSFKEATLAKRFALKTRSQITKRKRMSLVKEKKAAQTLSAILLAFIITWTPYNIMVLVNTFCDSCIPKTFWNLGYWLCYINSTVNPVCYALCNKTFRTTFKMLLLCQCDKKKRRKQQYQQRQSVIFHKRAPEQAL
Protocol: as §1, §2

[3] = target: T3, muscarinic receptor subtype M1 (Homo sapiens, UniProt P11229); experiment: as above; details: cloned human receptors in CHO cell membranes, [3H]N-methylscopolamine, average of four determinations
T3 construct: purchased Receptor Biology division of Perkin Elmer Life Sciences (Beltsville, Md.)
T3 sequence (P11229 1-460): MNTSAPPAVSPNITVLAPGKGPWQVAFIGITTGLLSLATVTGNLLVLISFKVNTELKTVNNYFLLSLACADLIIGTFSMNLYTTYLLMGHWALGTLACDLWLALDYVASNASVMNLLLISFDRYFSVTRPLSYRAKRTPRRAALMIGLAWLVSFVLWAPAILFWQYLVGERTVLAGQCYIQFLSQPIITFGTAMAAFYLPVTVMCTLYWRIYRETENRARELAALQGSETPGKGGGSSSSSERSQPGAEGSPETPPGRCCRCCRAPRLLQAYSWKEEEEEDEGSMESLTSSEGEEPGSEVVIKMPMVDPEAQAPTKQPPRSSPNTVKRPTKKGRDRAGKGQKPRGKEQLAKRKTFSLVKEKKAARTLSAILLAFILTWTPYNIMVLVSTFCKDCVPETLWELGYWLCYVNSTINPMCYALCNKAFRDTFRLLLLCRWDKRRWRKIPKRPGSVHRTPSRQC
Protocol: as §1, §2

[4] = target: T4, muscarinic receptor subtype M2 (Homo sapiens, UniProt P08172); experiment: as above; details: cloned human receptors in CHO cell membranes, [3H]N-methylscopolamine, average of four determinations
T4 construct: purchased Receptor Biology division of Perkin Elmer Life Sciences (Beltsville, Md.)
T4 sequence (P08172 1-466): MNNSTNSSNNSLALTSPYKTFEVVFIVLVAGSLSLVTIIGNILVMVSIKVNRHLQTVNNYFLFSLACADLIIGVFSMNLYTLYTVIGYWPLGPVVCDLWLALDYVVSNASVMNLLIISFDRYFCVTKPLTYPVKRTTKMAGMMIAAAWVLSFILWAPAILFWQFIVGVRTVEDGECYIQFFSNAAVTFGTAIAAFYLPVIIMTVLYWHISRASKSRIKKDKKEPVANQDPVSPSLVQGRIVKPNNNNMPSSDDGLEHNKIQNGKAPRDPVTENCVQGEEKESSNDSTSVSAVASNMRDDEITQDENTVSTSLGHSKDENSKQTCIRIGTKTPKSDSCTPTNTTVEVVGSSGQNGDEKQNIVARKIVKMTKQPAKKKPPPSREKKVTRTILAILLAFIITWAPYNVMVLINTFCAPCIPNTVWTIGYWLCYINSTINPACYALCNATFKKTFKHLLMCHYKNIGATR
Protocol: as §1, §2

Sequence of P450 CYP2D6 enzyme (P10635 whole entry): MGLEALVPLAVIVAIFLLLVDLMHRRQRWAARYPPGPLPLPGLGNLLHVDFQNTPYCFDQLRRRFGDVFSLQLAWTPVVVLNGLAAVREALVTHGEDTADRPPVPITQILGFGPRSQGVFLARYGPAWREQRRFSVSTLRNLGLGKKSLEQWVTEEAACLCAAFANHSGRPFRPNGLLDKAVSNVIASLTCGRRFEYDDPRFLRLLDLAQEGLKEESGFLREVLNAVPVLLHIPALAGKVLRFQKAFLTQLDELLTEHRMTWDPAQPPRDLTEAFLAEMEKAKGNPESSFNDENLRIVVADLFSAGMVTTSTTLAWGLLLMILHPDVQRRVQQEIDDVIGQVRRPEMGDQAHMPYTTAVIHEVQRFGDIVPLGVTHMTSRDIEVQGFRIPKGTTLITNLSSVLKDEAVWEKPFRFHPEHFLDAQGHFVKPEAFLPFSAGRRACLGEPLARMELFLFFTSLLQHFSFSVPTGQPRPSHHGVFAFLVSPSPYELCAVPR

Ki [2]	Ki [4]	Compound	oxidation/hydroxylation by P450 CYP2D6 enzyme (P450 CYP2D6 enzyme)	Ki [1]	Ki [3]
16 nM	8.4 nM	CC(C)N(CCC(c1ccccc1)c1cc(C(F)(F)F)ccc1O)C(C)C (racemic) [N,N-Diisopropyl-3-(2-hydroxy-5-trifluoro-methylphenyl)-3-phenylpropanamine]	not readily hydroxylated at the 5-trifluoromethyl substituent	6 nM	3.9 nM
		Cc1ccc(O)c([C@H](CCN(C(C)C)C(C)C)c2ccccc2)c1 [tolterodine, 2-[(1R)-3-(diisopropylamino)-1-phenylpropyl)-4-methylphenol, reference compound]		0.64 nM	0.79 nM
